In patent US7018803B2, “Inhibitors of collagen assembly” (Drexel University College of Medicine, priority 1997, dated 2006):
No end group written: not given here.

Key:
[1] = target: T1, α1-776/796 (telopeptide binding region of type I collagen) (Homo sapiens, UniProt P02452); assay: Phage display peptide library panning, ligand α1-776/796 peptide in all three cycles; details: ligand α1-776/796 x3
T1 construct: host or cells: synthetic peptide
From the text: (§1) A comrnmercially-available phage-display peptide library was used to identify peptides that bind to the telopeptide binding region of type I collagen (i.e. amino acid residues 776–797). The library comprised phage particles having about 1.9×10^9 distinct linear peptide sequences.
(§2) For the experiments described in this Example, either type I collagen or a 22-mer synthetic peptide having the amino acid sequence of residues 776–797 of type I collagen was bound to the walls of individual wells of microtiter plates. Aliquots of the phage-display peptide library were added to and incubated with the wells. Thereafter, the microtiter wells were rinsed to remove non-specifically-binding library particles, and specifically-binding library particles were eluted using a solution comprising at least one of: • the 22-mer synthetic peptide having the amino acid sequence of residues 776–797 of type I collagen; • type I collagen; and • glycine HCl buffer having a pH of 2.2.
(§3) Eluted specifically-binding library particles were added to and incubated with microtiter plates having either type I collagen or the 22-mer synthetic peptide bound to the wells thereof, and washing and elution steps were repeated. A total of three cycles of incubation-washing-elution were performed. Following these three cycles, specifically-binding phage particles were isolated, and the amino acid sequence of the peptide encoded by each of these particles was determined by amplifying and sequencing the nucleic acid contained within the particle.
Amino acid sequences of the random peptide region carried by discrete specifically-binding phage particles are indicated in Table II, together with the identity of the ligand bound to the microtiter wells in each of the three incubation-washing-elution cycles. These isolated peptides, or peptides having no more than about fifty, preferably no more than twenty, even more preferably no more than ten, and still more preferably no more than five amino acid residues at one or both ends thereof, may be used to inhibit collagen self-assembly by contacting a collagen molecule such as a collagen triple helix, with one of these peptides.

type I collagen = type I collagen (Homo sapiens, UniProt P02452); assay: Phage display peptide library panning, ligand type I collagen in all three cycles; assay type: binding; details: ligand Type I Collagen x3
From the text: as §1, §2, §3
Amino acid sequences of the random peptide region carried by discrete specifically-binding phage particles are indicated in Table II, together with the identity of the ligand bound to the microtiter wells in each of the three incubation-washing-elution cycles. […]

[2] = target: T2, type I collagen (pCcollagen I) (Homo sapiens, UniProt P02452); assay type: biochemical; details: for inhibition of fibril assembly (in words): peptide 2.5 mM
T2 construct: made in house; host or cells: cultured human skin fibroblasts (endogenous procollagen purified from the medium, 14C-labelled)
Procedure: Assembly of collagen I into fibrils de novo was assayed under conditions employed previously (Miyahara et al., 1982, J. Biol. Chem. 257:8442–8448; Kadler et al., 1987, J. Biol. Chem. 262:15696–15701; Kadler et al., 1990, Ann. N.Y. Acad. Sci. 580:214–224; Kadler et al., 1990, Biochem. J. 268:339–343; Fertala et al., 1996, J. Biol. Chem. 271:14864–14869). In brief, ^14C-labeled type I procollagen was recovered from the medium of cultured human skin fibroblasts and was purified with two chromatographic steps to homogeneity. The type I procollagen was processed to pccollagen I by cleavage with procollagen N-proteinase purified from organ cultures of chick embryo tendons. “pCcollagen” is a partially processed procollagen which is missing the […]. The pCcollagen was then isolated on a gel filtration column. Fibril assembly was assayed in a […] reaction volume in a […] plastic centrifuge tube sealed with a plunger and containing a physiological bicarbonate buffer, […] pCcollagen I, and 15 units/ml procollagen C-proteinase purified from chick embryo tendons. Potentially inhibitory peptides were added to the reaction mixture to final concentrations of 0.5 to 2.5 mM in […] of buffer. After incubation for 0.5 to 24 hours at 37° C., the sample was centrifuged 13,000×g for 10 min. The pellet and supemate fractions were separated by electrophoresis on a 7.5% polyacrylamide gel in SDS and the gel assayed either with a phosphor storage imager (Molecular Dynamics) or by staining with colloidal Coomassie blue (Brilliant Blue, Sigma) and analysis with a densitometer (Personal Densitometer, Molecular Dynamics). Alternatively, the reaction was carried out in a sealed chamber on a microscopic slide and followed by Dark field light microscopy (Zeiss model 009).
F6 contained sequences that spanned the vertebrate collagenase cleavage site of -Gly-le- in the D4 period of the α1(I) chain. […] The peptides were added in concentrations of 2.5 mM to the system for assaying fibril formation by the cleavage of pCcollagen with C-proteinase (Miyahara et al., 1982, J. Biol. Chem. 257:8442–8448; Kadler et al., 1987, J. Biol. Chem. 262:15696–15701; Kadler et al., 1990, Ann. N.Y. Acad. Sci. 580:214–224; Kadler et al., 1990, Biochem. J. 268:339–343; Fertala et al., 1996, J. Biol. Chem. 271:14864–14869).

[3] = target: T3, type I collagen (monomeric collagen, Vitrogen 100) (Bos taurus, UniProt P02453); assay: Competition binding assay on microtiter plates with biotinylated telopeptides
T3 construct: purchased Collagen Biomaterials Vitrogen 100
Procedure: A collagen assembly inhibitory peptide is “biologically active” if it is capable of inhibiting collagen self-assembly in any one of the assays described herein. For example, in a high throughput assay described herein in the description of the data shown in FIGS. 8 and 9, a series of wells in a microtiter plate are coated with monomeric collagen. An amount of HCl is added to each well and the plates are dried. The plates are rinsed in buffer and bovine serum albumin (BSA) is added to block non-specific binding sites on the collagen. Samples containing labeled peptide (for example, biotinylated peptide) which is known to inhibit collagen self-assembly and unlabeled test peptide at various concentrations are premixed and are added to the wells. […] The wells are incubated for a period of time, the plates are washed and streptavidin conjugated to alkaline phosphatase is added. Incubation is continued for a further period of time following which a developing reagent is added to the wells. The amount of binding of the labeled peptide to the collagen is assessed and the degree of inhibition of binding by the test peptide is also assessed. Any test peptide which inhibits binding of the labeled peptide is isolated and is tested further for the ability to inhibit collagen self-assembly in the assays described herein in the description of FIGS. 1, 2 and 3.
To define the telopeptide binding site with a competitive assay, 96-well titiation plates (Immulon 3, Dynatech Laboratories, Inc.) were used. Seventy microliters of the solution containing […] of monomeric collagen (Vitrogen 100, Collagen Biomaterials) in 0.01 N HCl was added to each well, and the plates were dried at room temperature. The plates were rinsed with sterile phosphate buffered saline and non-specific binding sites were blocked with 1% bovine serum albumin. […] As a negative control, peptide α2-218/233 was used at concentrations from […]. […] After 2 hours of incubation, the reaction was measured with microtiter plate reader (Dynatech Laboratories) using a 405 nanometer filter. […]

Chain of type I collagen (P02452 162-1218 limits assumed): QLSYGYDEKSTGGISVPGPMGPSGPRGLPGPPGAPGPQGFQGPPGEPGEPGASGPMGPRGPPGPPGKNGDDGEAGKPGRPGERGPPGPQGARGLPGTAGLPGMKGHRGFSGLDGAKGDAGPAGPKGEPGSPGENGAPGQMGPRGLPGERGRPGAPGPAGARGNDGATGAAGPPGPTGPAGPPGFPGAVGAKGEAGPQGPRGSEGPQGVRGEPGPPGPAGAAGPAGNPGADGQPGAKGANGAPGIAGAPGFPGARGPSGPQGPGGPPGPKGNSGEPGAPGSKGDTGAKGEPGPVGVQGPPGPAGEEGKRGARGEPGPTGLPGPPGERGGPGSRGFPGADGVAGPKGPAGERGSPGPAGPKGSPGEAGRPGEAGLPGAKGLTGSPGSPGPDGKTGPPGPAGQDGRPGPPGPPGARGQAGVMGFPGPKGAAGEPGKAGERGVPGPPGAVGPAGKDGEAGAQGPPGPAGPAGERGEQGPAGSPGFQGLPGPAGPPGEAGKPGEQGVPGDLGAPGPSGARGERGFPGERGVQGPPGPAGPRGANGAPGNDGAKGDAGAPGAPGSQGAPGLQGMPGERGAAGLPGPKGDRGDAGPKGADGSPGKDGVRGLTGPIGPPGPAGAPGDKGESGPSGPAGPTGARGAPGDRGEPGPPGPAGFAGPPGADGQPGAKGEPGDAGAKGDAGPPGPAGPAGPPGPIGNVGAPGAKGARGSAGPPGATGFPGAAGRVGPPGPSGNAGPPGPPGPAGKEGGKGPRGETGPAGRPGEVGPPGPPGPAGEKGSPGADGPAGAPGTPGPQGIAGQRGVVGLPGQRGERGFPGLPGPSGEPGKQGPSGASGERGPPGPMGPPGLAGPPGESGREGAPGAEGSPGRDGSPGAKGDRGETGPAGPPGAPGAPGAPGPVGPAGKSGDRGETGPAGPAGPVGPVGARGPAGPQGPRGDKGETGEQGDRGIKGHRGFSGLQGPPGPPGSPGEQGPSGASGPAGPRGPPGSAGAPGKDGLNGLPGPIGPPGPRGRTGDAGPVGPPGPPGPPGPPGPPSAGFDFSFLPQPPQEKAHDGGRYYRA
Chain of type I collagen (P08123 80-1119 partner limits assumed): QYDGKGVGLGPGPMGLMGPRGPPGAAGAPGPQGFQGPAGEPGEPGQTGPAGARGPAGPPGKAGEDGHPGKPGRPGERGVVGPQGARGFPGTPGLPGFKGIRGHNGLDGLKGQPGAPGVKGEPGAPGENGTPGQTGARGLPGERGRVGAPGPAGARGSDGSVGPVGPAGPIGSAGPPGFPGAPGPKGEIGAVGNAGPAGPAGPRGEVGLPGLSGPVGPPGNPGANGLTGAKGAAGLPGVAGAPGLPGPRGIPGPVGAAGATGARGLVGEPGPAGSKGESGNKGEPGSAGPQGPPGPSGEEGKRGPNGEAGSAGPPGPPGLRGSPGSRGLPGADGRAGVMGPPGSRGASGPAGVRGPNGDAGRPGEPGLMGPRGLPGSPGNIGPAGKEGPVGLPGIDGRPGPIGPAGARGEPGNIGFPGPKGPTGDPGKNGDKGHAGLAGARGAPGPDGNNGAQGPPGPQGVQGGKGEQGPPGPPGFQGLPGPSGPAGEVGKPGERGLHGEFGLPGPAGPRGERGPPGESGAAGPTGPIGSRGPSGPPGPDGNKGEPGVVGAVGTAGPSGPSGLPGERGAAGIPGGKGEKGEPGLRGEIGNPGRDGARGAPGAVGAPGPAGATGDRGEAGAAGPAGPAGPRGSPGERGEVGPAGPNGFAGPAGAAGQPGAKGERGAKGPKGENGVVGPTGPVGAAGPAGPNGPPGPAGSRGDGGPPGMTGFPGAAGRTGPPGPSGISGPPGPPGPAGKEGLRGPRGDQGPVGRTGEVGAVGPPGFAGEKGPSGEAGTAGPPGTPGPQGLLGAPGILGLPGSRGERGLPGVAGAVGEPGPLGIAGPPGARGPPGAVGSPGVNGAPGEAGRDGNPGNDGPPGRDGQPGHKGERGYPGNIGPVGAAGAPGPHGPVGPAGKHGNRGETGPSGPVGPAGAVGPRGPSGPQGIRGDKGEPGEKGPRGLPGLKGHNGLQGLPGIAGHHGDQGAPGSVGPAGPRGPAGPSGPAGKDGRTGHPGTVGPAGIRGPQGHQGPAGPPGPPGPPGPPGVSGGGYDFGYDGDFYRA
T2 sequence (P02452 162-1218 limits assumed): as the sequence (P02452 162-1218 limits assumed) above
T2 sequence (P08123 80-1119 partner limits assumed): as the sequence (P08123 80-1119 partner limits assumed) above
T3 sequence (P02453 178-1191 limits assumed): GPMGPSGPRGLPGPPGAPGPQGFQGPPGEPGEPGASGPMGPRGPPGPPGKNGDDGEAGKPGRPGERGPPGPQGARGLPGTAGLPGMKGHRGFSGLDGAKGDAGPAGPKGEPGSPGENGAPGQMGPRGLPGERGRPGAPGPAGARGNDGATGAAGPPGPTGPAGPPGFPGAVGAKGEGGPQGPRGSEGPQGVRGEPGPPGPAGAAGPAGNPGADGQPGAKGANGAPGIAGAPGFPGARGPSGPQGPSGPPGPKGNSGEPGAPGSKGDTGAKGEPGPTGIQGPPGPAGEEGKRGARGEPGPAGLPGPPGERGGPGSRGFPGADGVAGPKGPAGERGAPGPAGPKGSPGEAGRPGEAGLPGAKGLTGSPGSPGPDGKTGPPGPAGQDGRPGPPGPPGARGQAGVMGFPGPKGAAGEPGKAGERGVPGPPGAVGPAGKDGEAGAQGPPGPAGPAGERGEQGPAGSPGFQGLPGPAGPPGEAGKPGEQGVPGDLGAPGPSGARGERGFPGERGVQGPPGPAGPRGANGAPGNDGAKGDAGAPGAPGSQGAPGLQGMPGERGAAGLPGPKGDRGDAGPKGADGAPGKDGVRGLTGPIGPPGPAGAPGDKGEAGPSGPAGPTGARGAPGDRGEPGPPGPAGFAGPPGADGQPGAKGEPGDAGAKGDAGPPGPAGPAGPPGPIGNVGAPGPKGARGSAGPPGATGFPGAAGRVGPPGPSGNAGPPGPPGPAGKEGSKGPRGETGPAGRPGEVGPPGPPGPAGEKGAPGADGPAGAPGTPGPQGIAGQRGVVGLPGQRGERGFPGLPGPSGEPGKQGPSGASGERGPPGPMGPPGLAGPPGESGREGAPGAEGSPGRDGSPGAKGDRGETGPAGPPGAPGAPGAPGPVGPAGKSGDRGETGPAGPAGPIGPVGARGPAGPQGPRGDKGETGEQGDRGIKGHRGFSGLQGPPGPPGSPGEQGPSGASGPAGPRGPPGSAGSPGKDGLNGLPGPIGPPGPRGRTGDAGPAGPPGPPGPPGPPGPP

Substance: QLLEPVNLSTGP (Phage Display Library Peptide)
- # of Isolated Particles Having this Sequence ([1]; eluent α1-776/796): 7

Substance: LIQPPRYSTTVS (Phage Display Library Peptide)
- # of Isolated Particles Having this Sequence (type I collagen; eluent pH 2.2 buffer): 10

Substance: ADGPAGAPGTPGPQGIAGQRGVVGL [Peptide F6]
- inhibition of fibril assembly (in words) [2]: little if any inhibition

Substance: SHALPLTWSTAA (Phage Display Library Peptide)
- # of Isolated Particles Having this Sequence (type I collagen; eluent α1-776/796): 10
- # of Isolated Particles Having this Sequence ([1]; eluent α1-776/796): 1

Substance: GGGYDFGYDGDFYRA [Peptide F3]
- effect on fibril formation when added during the lag period ([2]; 2.5 mM added during the lag phase): inhibited fibril formation
- effect on fibril assembly when added during the mid-propagation phase ([2]; 2.5 mM added during the mid-propagation phase): little of any effect
- appearance of fibrils by Dark field light microscopy ([2]; 2.5 mM, sealed chamber, 37° C., 24 hours): No fibrils appeared
- effect on fibril assembly if added at or before the first one-third of the lag phase ([2]; added at or before the first one-third of the lag phase): completely prevented fibril assembly
- effect on fibril assembly if added after the first one-third of the lag phase ([2]; added thereafter): much less effect
- inhibition of fibril assembly (in words) [2]: almost completely inhibited

Substance: GYDGDFYRA [Peptide F8]
- inhibition of fibril assembly (in words) [2]: equally effective as the intact F3

Substance: GGGYSFGYS [F7/A]
- inhibition of fibril assembly (in words) [2]: no effect on inhibition of fibril assembly

Substance: LLPHSVSIPPDA (Phage Display Library Peptide)
- # of Isolated Particles Having this Sequence (type I collagen; eluent Type I Collagen): 10

Substance: VHWWIPVSTGTA (Phage Display Library Peptide)
- # of Isolated Particles Having this Sequence ([1]; eluent pH 2.2 buffer): 6→

Substance: DFRYRA [Peptide F10, DFRYRA]
- inhibition of fibril assembly (in words) [2]: Smaller effects

Substance: GYDFGYDGDF [Peptide F9]
- inhibition of fibril assembly (in words) [2]: Smaller effects

Substance: GGGSDSGSD [F7/B]
- inhibition of fibril assembly (in words) [2]: abolished inhibitory effects

Substance: QLSYGYDEKSTGGISVP [Peptide F4]
- inhibition of fibril assembly (in words) [2]: almost completely inhibited

Substance: AKGAAGLPGVAGAPGL [Peptide F1]
- inhibition of fibril assembly (in words) [2]: little if any inhibition
- competition for the binding site with biotinylated telopeptides ([3]; negative control, 10 to 500 mM): no competition

Substance: YGSPHPSRPPGA (Phage Display Library Peptide)
- # of Isolated Particles Having this Sequence ([1]; eluent Type I Collagen): 10
- # of Isolated Particles Having this Sequence ([1]; eluent α1-776/796): 1→

Substance: α1-776/797: peptide with the sequence of the amino acids in positions 776 to 797 of the α1(I) chain (IAGQRGVVGLPGQRGERGFPGL)
- competition with binding of biotinylated C-telopeptide of the α1(I) chain (peptide F2) to type I collagen ([3]; 50 mM biotinylated F2, 10 to 500 mM competitor, 25° C., 12 h): effectively competed
- competition with binding of biotinylated C-telopeptide of the α2(I) chain (peptide F3) to type I collagen ([3]; 50 mM biotinylated F3, 10 to 500 mM competitor, 25° C., 12 h): effectively competed

Substance: GGGYDFGYD [Peptide F7]
- inhibition of fibril assembly (in words) [2]: equally effective as the intact F3

Substance: TFWHLTPPRGYY (Phage Display Library Peptide)
- # of Isolated Particles Having this Sequence ([1]; eluent pH 2.2 buffer): 3→

Substance: YGAGFDDGDYGYRYG [SC/F3, peptide having the same amino acid residues as F3, but in a scrambled order, reference compound]
- inhibition of fibril assembly (in words) [2]: no effect
